Key:
[1] = tested on: rat hepatoma (H4IIE) cell line; experiment: CeeTox MTT reduction assay; type: cell-based; conditions: H4IIE cells, 24hour
Protocol: (§1) All Ceetox assays utilizing the rat hepatoma (H4IIE) cell line as the test system were conducted by CeeTox Inc Kalamazoo, MI. Ceetox assays are described in detail by McKim and Lapchak and according to a Standard Operating Procedure (SOP).
(§2) Rat hepatoma derived H4IIE cells were used as the test system because the cell have a rapid doubling time in culture (i.e. 22 hours). The culture medium used for these cells was Eagles Minimum Essential Medium (MEM) with 10% bovine serum and 10% calf serum (Invitrogen). H4IIE cells were seeded into 96-well plates and allowed to equilibrate for approximately 48 hr before drug assay to allow cells to move into a stable growth phase prior to treatment. Following the equilibration period the cells were exposed to J-147 at concentrations of 1–300 μM. Three to 7 replicates were done for each assay to construct concentration-response curves. Solubility was determined by Nephalometry techniques immediately after dosing and prior to harvesting the cells at 6 or 24 hr. Following the incubation period, cells or their supernatant (culture medium) were analyzed for changes in cell proliferation (cell mass), membrane leakage, mitochondrial function, oxidative stress, and apoptosis. The resultant exposure concentration response curves were graphed and analyzed for determining the concentration that produced a half maximal response or TC50 [28, 30].
(§3) The presence of α-Glutathione S-transferase (α-GST), an enzyme leakage marker, was measured in the culture medium using an ELISA assay purchased from Argutus Medical. […] Absorbance values were measured with a Packard SpectraCount™ reader at 450 nm and reference absorbance at 650 nm. Leakage of α-GST from the cell into the culture medium was determined by collecting the culture medium at the end of the exposure period. Thus, the values measured represent total enzyme leakage lost over the exposure period. […] Sample absorbance was read at 570 nm and reference absorbance at 650 nm with a Packard Fusion reader. […]

[2] = tested on: rat hepatoma (H4IIE) cell line; experiment: CeeTox membrane toxicity, α-GST leakage ELISA; type: cell-based; conditions: H4IIE cells, 24hour; membrane toxicity measured using GST leakage
Protocol: as §1, §2, §3

P-glycoprotein (PgP) = P-glycoprotein (PgP) binding using the MTT assay with and without cyclosporin A; type: cell-based, rat; set-up: key to % Difference (PgP interaction ranking): NC=No change; conditions: for % Control (Compound + CSA) / % Control (Compound): MTT, H4IIE cells, single exposure concentration (50 μM), 24-hr; for % Control (Compound + CSA): with cyclosporin A; for % Control (Compound): without CSA; for % Difference (PgP interaction ranking): difference in the absence and presence of CSA
Protocol: For this assay, cells are incubated with and without cyclosporin A (CSA) (a PgP inhibitor) at a single exposure concentration (50 μM) and the difference in toxicity determined with the MTT assay. Compounds with increased toxicity in the presence of CSA have a high probability of binding to PgP proteins. However, compounds of low toxicity will typically not show a difference relative to the addition of CSA, regardless of whether they bind to PgP. At the end of the 24-hr exposure period the culture medium was removed and the remaining attached cells were assayed for their ability to reduce MTT. Viable cells will have the greatest amount of MTT reduction and highest absorbance values. Percent control values were determined by dividing the mean absorbance/fluorescence of the treatment group by the mean absorbance of the control group and multiplying by 100.

[3] = tested on: rat hepatoma (H4IIE) cell line; experiment: CeeTox cellular ATP content, luciferin/luciferase; type: cell-based; conditions: H4IIE cells, 24-hr exposure
Protocol: as §1, §2
Adenosine triphosphate (ATP) content was determined using a modification of a standard luciferin/luciferase luminescence assay based on a reaction between ATP + D-luciferin + oxygen catalyzed by luciferase to yield Oxyluciferin + AMP + PPi + CO2 + light. The emitted light is proportional to the amount of ATP present. […] Plates were analyzed immediately or stored at −20°C until needed. […] ATP was quantified by adding ATP substrate solution and then reading luminescence on a Packard Fusion Luminescence reader. […] Background corrected luminescence was used to determine percent change relative to controls by dividing treated values by control values and multiplying by 100.

[4] = tested on: rat hepatoma (H4IIE) cell line; experiment: CeeTox cell mass (cell number), propidium iodide fluorescence; type: cell-based; conditions: H4IIE cells; for Cell Number TC50: 24hour analysis endpoint, cell number (or mass)
Protocol: as §1, §2
Cell mass in each well was measured with a modified propidium iodide (PI), a specific nucleic acid binding dye that fluoresces when intercalated within the nucleic acids. The 15nm shift enhances PI fluorescence approximately 20 times while the excitation maxima are shifted 30–40nm. Triton-X-100 was used to permeabilize the H4IIE cells thereby allowing the PI access to intracellular RNA and DNA. Fluorescence was measured using a Packard Fusion plate reader at 540 nm excitation and 610 nm emission. Data is collected as relative fluorescent units (RFU) and expressed as percent change relative to control;

Structure (SMILES) | MTT TC50 [1] [µM] | Mem Tox TC50 [2] [µM] | % Control (Compound + CSA) (P-glycoprotein (PgP)) [%] | % Control (Compound) (P-glycoprotein (PgP)) [%] | % Difference (PgP interaction ranking) (P-glycoprotein (PgP)) | ATP TC50 [3] [µM] | Cell Number TC50 [4] [µM] | Interaction with Permeability-glycoprotein (P-glycoprotein (PgP); cells incubated with and without CSA, 50 μM) | Concentration range with decrease in cell proliferation ([4]; prior to effects on other markers, in the absence of cell death) [µM]
CC[C@@]1(O)C(=O)OCc2c1cc1n(c2=O)Cc2cc3ccccc3nc2-1 [Camptothecin, camptothecin] | 0.5 | >300 | 85.3 | 76.6 | NC | 0.3 | 0.6 | – | –
COc1cccc(/C=N/N(C(=O)C(F)(F)F)c2ccc(C)cc2C)c1 [J-147, (E)-N-(2,4-Dimethylphenyl)-2,2,2-trifluoro-N′-(3-methoxybenzylidene) acetohydrazide] | 228 | >300 | 92.1 | 93.7 | NC | 210 | 293 | low interaction | 20 to 100
C=C(C)[C@H]1Cc2c(ccc3c2O[C@@H]2COc4cc(OC)c(OC)cc4[C@@H]2C3=O)O1 [Rotenone, rotenone] | 0.07 | 0.93 | 86.1 | 80.5 | NC | 0.05 | 0.04 | – | –

Reference: publication PMC4215638, “J-147 a Novel Hydrazide Lead Compound to Treat Neurodegeneration: CeeTox™ Safety and Genotoxicity Analysis” (Journal of neurology & neurophysiology, 2013)
